Laboratory results from patent US20090088380A1, “GHRH ANALOGS AND THERAPEUTIC USES THEREOF” (priority 2007, published 2009).
Non-standard residues stand in square brackets, D forms with d. Residues, ends and D or L forms follow the SMILES beside them.

Columns and labels:
[1] = system: malnourished subjects with CKD; assay: Phase II CKD: Subjective Global Assessment (SGA); assay type: in vivo, human; conditions: for SGA mild to moderately malnourished: (%) / SGA mild to moderately malnourished: n / SGA severely malnourished: (%) / SGA severely malnourished: n / SGA well nourished: (%) / SGA well nourished: n: ITT
Source text: An SGA was an overall evaluation of a subject by an experienced clinician that correlated with the subjective and objective aspects of a medical history and physical examination. An SGA was completed at both the screening and baseline visits, on Day 28 and at the follow-up visit. Review of the medical history included an assessment of weight and weight change, dietary intake, gastrointestinal symptoms, disease state, and the subject's functional status. The SGA also included a physical examination for negative changes in body composition such as loss of subcutaneous fat or muscle wasting, and signs of oedema or ascites (nutrition-related). After evaluation, the subject was classified as well nourished (A), mild to moderately malnourished (B), or severely malnourished (C).

healthy male volunteers = assay: Phase I/II study in healthy male volunteers: safety and tolerability; assay type: in vivo, human
Procedure: In order to evaluate the safety of the drug, all reported adverse events were considered during the study. The effects of the drug exerted specifically on the liver, renal, thyroid, cardiac and haematological functions were evaluated. The MED was defined as the dose of the GHRH(1-29)NH2 synthetic analog lower than the subsequent dose that produced the best secretion profile of GH.
It was a crossover single-blinded Phase I/II trial of escalating doses of the GHRH(1-29)NH2 synthetic analog controlled versus placebo. Ten healthy middle-aged male volunteers, between 50 and 55 years old, were recruited. All 10 subjects received a single subcutaneous dose of the GHRH(1-29)NH2 synthetic analog (reconstituted in water for injection), per day for 5 days, in a dose range from 5 to 25 μg/kg of body weight (lower than the maximal dose used to treat GH deficiency in children, which was 30 μg/kg of body weight).
After signing the informed consent form, all volunteers were clinically evaluated by the investigator and a chest x-ray and basal electrocardiogram and routine laboratory tests were performed. The analysis included: haemogram (hematocrit, haemoglobin, complete blood cell count, mean cell volume (MCV), mean corpuscular haemoglobin concentration (MCHC) and platelet count), liver function tests (aminotransferases, total proteins, albumin, alkaline phosphatase, billirubin, lactate dehydrogenase and prothrombin time), biochemistry (creatinine, urea, sodium, potassium, calcium, phosphorus, fasting glucose and postprandial glucose), urinalysis (pH, glucose, blood, proteins, and leukocytes), triiodothyronine, thyroxin and thyroid stimulating hormone (TSH), serology, basal level of IGF-1 and urine drug abuse screening.
Once the volunteers were considered eligible, they were hospitalized for a period of 5 consecutive days. On Day 0 of admission successive samples of blood were taken to perform the basal secretion profile of GH during 24 hours. During 5-day hospitalization period, after the initial blood sampling to determine fasting glucose level, the appropriate dose of the GHRH(1-29)NH2 synthetic analog or placebo was administered and multiple samplings were performed to assess the profile of GH, postprandial glucose level and electrocardiogram after 60 minutes of the application of the GHRH(1-29)NH2 synthetic analog/placebo. Eight hours after drug administration, samples were obtained to determine IGF-1 level, thyroid hormones and routine analysis. After 30 days of admission, all the volunteers returned for new clinical evaluation to record any adverse events that could have occurred from the last day of hospitalization period and to take a blood sample for later determination of anti-GHRH(1-29)NH2 synthetic analog antibodies.

[2] = system: Salmonella strains, Chinese Hamster Ovary cells, erythrocyte micronucleus test; assay: Mutagenicity tests
[3] = Baseline, listed as GHRH(1-29)NH2 synthetic analog
[4] = all volunteers, throughout the study

CC[C@H](C)[C@H](NC(=O)[C@H](C)NC(=O)[C@H](CC(=O)O)NC(=O)[C@@H](C)NC(=O)[C@@H](N)Cc1ccc(O)cc1)C(=O)N[C@@H](Cc1ccccc1)C(=O)N[C@H](C(=O)N[C@@H](CC(N)=O)C(=O)N[C@@H](CO)C(=O)N[C@H](Cc1ccc(O)cc1)C(=O)N[C@@H](CCCNC(=N)N)C(=O)N[C@@H](CCCCN)C(=O)N[C@H](C(=O)N[C@@H](CC(C)C)C(=O)N[C@H](C)C(=O)N[C@@H](CCC(N)=O)C(=O)N[C@@H](CC(C)C)C(=O)N[C@@H](CO)C(=O)N[C@@H](C)C(=O)N[C@@H](CCCNC(=N)N)C(=O)N[C@@H](CCCCN)C(=O)N[C@@H](CCCCN)C(=O)N[C@@H](CC(C)C)C(=O)N[C@@H](CCC(N)=O)C(=O)N[C@@H](CC(=O)O)C(=O)N[C@H](C(=O)N[C@@H](CCSC)C(=O)N[C@@H](CO)C(=O)N[C@@H](CCCNC(=N)N)C(N)=O)[C@@H](C)CC)C(C)C)[C@@H](C)O [GHRH analog #5, [D-Ala^2, D-Tyr^10, D-Ala^15, Lys^22] hGHRH(1-29)-NH2] (H-Y[dA]DAIFTNS[dY]RKVL[dA]QLSARKKLQDIMSR-NH2)
SGA mild to moderately malnourished: (%) ([1]; Baseline): (69.2%) | SGA mild to moderately malnourished: n ([1]; Baseline): 9 | SGA severely malnourished: (%) ([1]; Baseline): (7.7%) | SGA severely malnourished: n ([1]; Baseline): 1 | SGA well nourished: (%) ([1]; Baseline): (23.1%) | SGA well nourished: n ([1]; Baseline): 3 | SGA severely malnourished: (%) [1, 3]: 7.7% | SGA well nourished: (%) [1, 3]: 23.1% | SGA mild to moderately malnourished: (%) ([1]; Day 28): (16.7%) | SGA mild to moderately malnourished: n ([1]; Day 28): 2 | SGA severely malnourished: (%) ([1]; Day 28): (8.3%) | SGA severely malnourished: n ([1]; Day 28): 1 | SGA well nourished: (%) ([1]; Day 28): (75.0%) | SGA well nourished: n ([1]; Day 28): 9 | SGA well nourished: (%) ([1]; Day 28, listed as GHRH(1-29)NH2 synthetic analog): 75.0% | Mild to moderate malnourished patients (of 9) who became well nourished ([1]; after 28 days of therapy): 6 | Serious adverse events (healthy male volunteers; 5 to 25 μg/kg sc, healthy male volunteers): no serious adverse events were reported | Aminotransferase elevation, one case (healthy male volunteers; Day 1 to Day 5): less than 2.5 times the upper normal limit | Neutrophils, neutropenia case (healthy male volunteers; Day 2, after 10 μg/kg dose): 1,406 neutrophyles/mm3 | White blood cells, leukopenia case (healthy male volunteers; Day 2, after 10 μg/kg dose): 3,800 WBC/mm3 | Eosinophils, eosinophilia in one volunteer (healthy male volunteers; Day 5, 5 μg/kg dose): 808 eosinophyls/mm3 | White blood cells, leukocytosis in one volunteer (healthy male volunteers; Day 5, 5 μg/kg dose): 12,400 WBC/mm3 | Mean decrease of haematocrit (healthy male volunteers; [4]): 10.1±1.9 points | Mean decrease of haemoglobin (healthy male volunteers; [4]): 2.8 ± 0.8 g/dL | Thyroid anomalies, cardiac dysfunction (healthy male volunteers; human, in vivo): Neither thyroid anomalies nor cardiac dysfunction were reported | Clastogenicity [2]: not a clastogenic agent | Mutagenicity ([2]; Salmonella strains, CHO cells, erythrocyte micronucleus test): no evidence of mutagenicity
